Test results reported in ChEMBL document CHEMBL4507320, “Data for DCP probe NVS-MALT1” (2021).

Key:
[1] = tested on: Tyrosine-protein kinase ABL1 (Homo sapiens), P00519 [Y253F]; conditions: Compound concentration 1000.0 nM
[2] = biological target: Activin receptor type-1B (Homo sapiens) (UniProt P36896); conditions: Compound concentration 1000.0 nM
[3] = biological target: Calcium/calmodulin-dependent protein kinase type IV (Homo sapiens) (UniProt Q16566); conditions: Compound concentration 1000.0 nM
[4] = biological target: Calcium/calmodulin-dependent protein kinase kinase 2 (Homo sapiens) (UniProt Q96RR4); conditions: Compound concentration 1000.0 nM
[5] = biological target: Cyclin-dependent kinase 13 (Homo sapiens) (UniProt Q14004); conditions: Compound concentration 1000.0 nM
[6] = biological target: Cyclin-dependent kinase 3 (Homo sapiens) (UniProt Q00526); conditions: Compound concentration 1000.0 nM
[7] = biological target: Cyclin-dependent kinase 7 (Homo sapiens) (UniProt P50613); conditions: Compound concentration 1000.0 nM
[8] = biological target: Cyclin-dependent kinase 9 (Homo sapiens) (UniProt P50750); conditions: Compound concentration 1000.0 nM
[9] = biological target: Casein kinase I isoform gamma-2 (Homo sapiens) (UniProt P78368); conditions: Compound concentration 1000.0 nM
[10] = biological target: Casein kinase II subunit alpha (Homo sapiens) (UniProt P68400); conditions: Compound concentration 1000.0 nM
[11] = biological target: Death-associated protein kinase 1 (Homo sapiens) (UniProt P53355); conditions: Compound concentration 1000.0 nM
[12] = biological target: Serine/threonine-protein kinase DCLK1 (Homo sapiens) (UniProt O15075); conditions: Compound concentration 1000.0 nM
[13] = tested on: Epidermal growth factor receptor (Homo sapiens), P00533 [G719C]; conditions: Compound concentration 1000.0 nM
[14] = tested on: Epidermal growth factor receptor (Homo sapiens), P00533 [G719S]; conditions: Compound concentration 1000.0 nM
[15] = biological target: Ephrin type-A receptor 8 (Homo sapiens) (UniProt P29322); conditions: Compound concentration 1000.0 nM
[16] = biological target: Ephrin type-B receptor 6 (Homo sapiens) (UniProt O15197); conditions: Compound concentration 1000.0 nM
[17] = tested on: Receptor-type tyrosine-protein kinase FLT3 (Homo sapiens), P36888 [K663Q]; conditions: Compound concentration 1000.0 nM
[18] = tested on: Receptor-type tyrosine-protein kinase FLT3 (Homo sapiens), P36888 [R834Q]; conditions: Compound concentration 1000.0 nM
[19] = biological target: Vascular endothelial growth factor receptor 3 (Homo sapiens) (UniProt P35916); conditions: Compound concentration 1000.0 nM
[20] = biological target: Beta-adrenergic receptor kinase 1 (Homo sapiens) (UniProt P25098); conditions: Compound concentration 1000.0 nM
[21] = biological target: Mitogen-activated protein kinase kinase kinase kinase 1 (Homo sapiens) (UniProt Q92918); conditions: Compound concentration 1000.0 nM
[22] = tested on: Mast/stem cell growth factor receptor Kit (Homo sapiens), P10721 [V559D]; conditions: Compound concentration 1000.0 nM
[23] = biological target: Mitogen-activated protein kinase kinase kinase kinase 5 (Homo sapiens) (UniProt Q9Y4K4); conditions: Compound concentration 1000.0 nM
[24] = biological target: MAP kinase-interacting serine/threonine-protein kinase 2 (Homo sapiens) (UniProt Q9HBH9); conditions: Compound concentration 1000.0 nM
[25] = biological target: Mitogen-activated protein kinase kinase kinase 9 (Homo sapiens) (UniProt P80192); conditions: Compound concentration 1000.0 nM
[26] = biological target: Serine/threonine-protein kinase MRCK beta (Homo sapiens) (UniProt Q9Y5S2); conditions: Compound concentration 1000.0 nM
[27] = biological target: Macrophage-stimulating protein receptor (Homo sapiens) (UniProt Q04912); conditions: Compound concentration 1000.0 nM
[28] = biological target: Myosin light chain kinase 2, skeletal/cardiac muscle (Homo sapiens) (UniProt Q9H1R3); conditions: Compound concentration 1000.0 nM
[29] = biological target: Myosin light chain kinase family member 4 (Homo sapiens) (UniProt Q86YV6); conditions: Compound concentration 1000.0 nM
[30] = biological target: Mitogen-activated protein kinase kinase kinase 14 (Homo sapiens) (UniProt Q99558); conditions: Compound concentration 1000.0 nM
[31] = biological target: Cyclin-dependent kinase 16 (Homo sapiens) (UniProt Q00536); conditions: Compound concentration 1000.0 nM
[32] = biological target: Cyclin-dependent kinase 14 (Homo sapiens) (UniProt O94921); conditions: Compound concentration 1000.0 nM
[33] = biological target: Phosphorylase b kinase regulatory subunit alpha, liver isoform (Homo sapiens) (UniProt P46019); conditions: Compound concentration 1000.0 nM
[34] = biological target: Phosphatidylinositol 4,5-bisphosphate 3-kinase catalytic subunit alpha isoform (Homo sapiens) (UniProt P42336); conditions: Compound concentration 1000.0 nM
[35] = tested on: Phosphatidylinositol 4,5-bisphosphate 3-kinase catalytic subunit alpha isoform (Homo sapiens), P42336 [H1047L]; conditions: Compound concentration 1000.0 nM
[36] = biological target: Serine/threonine-protein kinase D3 (Homo sapiens) (UniProt O94806); conditions: Compound concentration 1000.0 nM
[37] = biological target: Serine/threonine-protein kinase RIO1 (Homo sapiens) (UniProt Q9BRS2); conditions: Compound concentration 1000.0 nM
[38] = biological target: Activated CDC42 kinase 1 (Homo sapiens) (UniProt Q07912); conditions: Compound concentration 1000.0 nM
[39] = biological target: Testis-specific serine/threonine-protein kinase 3 (Homo sapiens) (UniProt Q96PN8); conditions: Compound concentration 1000.0 nM
[40] = biological target: Non-receptor tyrosine-protein kinase TYK2 (Homo sapiens) (UniProt P29597); conditions: Compound concentration 1000.0 nM
[41] = biological target: Wee1-like protein kinase (Homo sapiens) (UniProt P30291); conditions: Compound concentration 1000.0 nM
[42] = biological target: D(2) dopamine receptor (Homo sapiens) (UniProt P14416); conditions: Compound concentration 10.0 uM
[43] = biological target: Histamine H2 receptor (Homo sapiens) (UniProt P25021); conditions: Compound concentration 10.0 uM
[44] = biological target: Muscarinic acetylcholine receptor M4 (Homo sapiens) (UniProt P08173); conditions: Compound concentration 10.0 uM
[45] = biological target: Sigma intracellular receptor 2 (Homo sapiens, UniProt Q5BJF2); conditions: Compound concentration 10.0 uM

Chain of Calcium/calmodulin-dependent protein kinase type IV (Homo sapiens) (Q16566 whole entry): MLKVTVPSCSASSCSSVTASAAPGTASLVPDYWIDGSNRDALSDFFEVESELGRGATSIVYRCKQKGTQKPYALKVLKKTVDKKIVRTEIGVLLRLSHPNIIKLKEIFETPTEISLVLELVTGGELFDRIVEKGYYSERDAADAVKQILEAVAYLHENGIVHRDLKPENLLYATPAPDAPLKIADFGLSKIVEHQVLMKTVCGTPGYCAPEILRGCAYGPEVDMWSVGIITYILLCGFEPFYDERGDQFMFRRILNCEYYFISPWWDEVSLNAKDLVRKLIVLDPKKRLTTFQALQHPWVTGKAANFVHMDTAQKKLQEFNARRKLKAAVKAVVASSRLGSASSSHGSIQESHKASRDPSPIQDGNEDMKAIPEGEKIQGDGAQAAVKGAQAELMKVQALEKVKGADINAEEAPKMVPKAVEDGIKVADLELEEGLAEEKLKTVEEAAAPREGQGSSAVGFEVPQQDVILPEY
Chain of Myosin light chain kinase family member 4 (Homo sapiens) (Q86YV6 whole entry): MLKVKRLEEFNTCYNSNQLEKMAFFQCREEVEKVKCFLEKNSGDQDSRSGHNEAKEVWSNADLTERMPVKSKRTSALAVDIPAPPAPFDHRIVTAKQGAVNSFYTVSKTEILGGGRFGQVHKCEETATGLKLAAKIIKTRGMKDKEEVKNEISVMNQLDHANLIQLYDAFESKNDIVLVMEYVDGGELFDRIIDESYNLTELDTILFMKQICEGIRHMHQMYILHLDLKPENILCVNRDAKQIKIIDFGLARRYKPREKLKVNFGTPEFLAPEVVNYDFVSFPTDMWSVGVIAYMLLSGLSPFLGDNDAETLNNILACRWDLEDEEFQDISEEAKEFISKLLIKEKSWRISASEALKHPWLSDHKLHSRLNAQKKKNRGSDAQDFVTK
Chain of Wee1-like protein kinase (Homo sapiens) (P30291 whole entry, looked up): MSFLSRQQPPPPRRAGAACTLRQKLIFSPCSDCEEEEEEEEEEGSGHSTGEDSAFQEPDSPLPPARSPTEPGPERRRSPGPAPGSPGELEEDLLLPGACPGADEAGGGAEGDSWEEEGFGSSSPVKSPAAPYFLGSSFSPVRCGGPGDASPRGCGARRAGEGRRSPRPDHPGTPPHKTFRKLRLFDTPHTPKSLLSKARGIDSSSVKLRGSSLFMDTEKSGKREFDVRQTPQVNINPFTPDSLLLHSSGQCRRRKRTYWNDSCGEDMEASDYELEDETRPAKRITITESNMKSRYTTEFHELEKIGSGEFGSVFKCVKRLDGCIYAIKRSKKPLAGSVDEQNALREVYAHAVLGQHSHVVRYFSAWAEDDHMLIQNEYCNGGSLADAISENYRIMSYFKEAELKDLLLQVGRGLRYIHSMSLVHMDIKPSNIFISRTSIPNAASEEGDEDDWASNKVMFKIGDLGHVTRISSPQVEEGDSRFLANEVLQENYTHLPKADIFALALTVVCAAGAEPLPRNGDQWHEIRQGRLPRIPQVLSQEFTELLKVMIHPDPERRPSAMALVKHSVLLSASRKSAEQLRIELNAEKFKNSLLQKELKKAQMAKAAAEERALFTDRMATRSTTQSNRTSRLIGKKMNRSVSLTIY
Chain of Phosphatidylinositol 4,5-bisphosphate 3-kinase catalytic subunit alpha isoform (Homo sapiens), P42336 [H1047L] (P42336 whole entry H1047L, canonical isoform): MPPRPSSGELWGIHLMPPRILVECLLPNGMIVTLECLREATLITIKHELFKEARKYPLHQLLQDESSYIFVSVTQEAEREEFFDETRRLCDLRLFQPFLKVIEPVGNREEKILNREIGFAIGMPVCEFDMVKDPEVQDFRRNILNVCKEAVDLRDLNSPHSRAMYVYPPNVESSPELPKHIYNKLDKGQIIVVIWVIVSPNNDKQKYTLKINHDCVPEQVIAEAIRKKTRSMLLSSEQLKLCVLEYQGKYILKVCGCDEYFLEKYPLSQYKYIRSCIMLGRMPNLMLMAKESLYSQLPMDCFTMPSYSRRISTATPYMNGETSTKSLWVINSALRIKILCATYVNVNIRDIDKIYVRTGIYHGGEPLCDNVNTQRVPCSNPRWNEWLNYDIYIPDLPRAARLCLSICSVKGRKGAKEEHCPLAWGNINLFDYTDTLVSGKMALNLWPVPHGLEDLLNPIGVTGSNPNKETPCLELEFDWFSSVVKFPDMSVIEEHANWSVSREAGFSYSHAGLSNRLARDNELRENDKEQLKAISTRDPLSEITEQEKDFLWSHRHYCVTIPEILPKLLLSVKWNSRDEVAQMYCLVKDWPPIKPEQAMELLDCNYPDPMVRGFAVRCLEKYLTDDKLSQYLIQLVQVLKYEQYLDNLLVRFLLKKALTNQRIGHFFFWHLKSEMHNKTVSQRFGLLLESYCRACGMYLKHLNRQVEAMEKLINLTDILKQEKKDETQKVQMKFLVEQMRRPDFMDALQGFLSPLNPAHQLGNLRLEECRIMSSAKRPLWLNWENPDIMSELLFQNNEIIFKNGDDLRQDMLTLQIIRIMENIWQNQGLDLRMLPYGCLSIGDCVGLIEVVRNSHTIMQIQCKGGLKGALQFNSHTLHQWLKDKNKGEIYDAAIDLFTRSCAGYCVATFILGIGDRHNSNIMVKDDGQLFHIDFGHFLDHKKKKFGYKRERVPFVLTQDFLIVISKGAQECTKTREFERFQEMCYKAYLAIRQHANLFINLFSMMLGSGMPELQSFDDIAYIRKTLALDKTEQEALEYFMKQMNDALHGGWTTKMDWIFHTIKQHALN
Chain of Cyclin-dependent kinase 7 (Homo sapiens) (P50613 whole entry): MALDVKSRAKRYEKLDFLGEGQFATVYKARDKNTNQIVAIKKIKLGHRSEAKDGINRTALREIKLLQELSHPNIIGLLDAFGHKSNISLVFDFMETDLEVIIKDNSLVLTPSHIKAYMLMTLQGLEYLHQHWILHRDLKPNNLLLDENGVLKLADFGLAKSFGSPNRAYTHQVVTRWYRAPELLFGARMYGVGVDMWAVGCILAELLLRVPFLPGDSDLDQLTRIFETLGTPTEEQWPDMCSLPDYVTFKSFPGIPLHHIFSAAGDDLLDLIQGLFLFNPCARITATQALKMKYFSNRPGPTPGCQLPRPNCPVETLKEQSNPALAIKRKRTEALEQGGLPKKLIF
Chain of Cyclin-dependent kinase 14 (Homo sapiens) (O94921 whole entry, canonical isoform): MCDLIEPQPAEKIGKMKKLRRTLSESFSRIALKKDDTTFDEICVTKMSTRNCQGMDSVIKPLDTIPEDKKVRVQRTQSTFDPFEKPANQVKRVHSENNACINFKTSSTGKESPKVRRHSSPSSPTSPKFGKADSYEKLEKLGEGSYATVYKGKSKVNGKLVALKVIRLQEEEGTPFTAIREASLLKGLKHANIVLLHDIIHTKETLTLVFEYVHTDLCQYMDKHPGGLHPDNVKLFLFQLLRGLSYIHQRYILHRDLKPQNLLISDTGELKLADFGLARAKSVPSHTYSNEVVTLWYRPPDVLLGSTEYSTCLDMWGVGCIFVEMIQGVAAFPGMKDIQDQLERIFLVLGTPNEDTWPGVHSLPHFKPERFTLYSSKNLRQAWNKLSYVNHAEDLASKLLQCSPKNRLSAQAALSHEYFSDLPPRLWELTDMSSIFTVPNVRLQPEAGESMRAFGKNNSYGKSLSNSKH
Chain of Activin receptor type-1B (Homo sapiens) (P36896 whole entry): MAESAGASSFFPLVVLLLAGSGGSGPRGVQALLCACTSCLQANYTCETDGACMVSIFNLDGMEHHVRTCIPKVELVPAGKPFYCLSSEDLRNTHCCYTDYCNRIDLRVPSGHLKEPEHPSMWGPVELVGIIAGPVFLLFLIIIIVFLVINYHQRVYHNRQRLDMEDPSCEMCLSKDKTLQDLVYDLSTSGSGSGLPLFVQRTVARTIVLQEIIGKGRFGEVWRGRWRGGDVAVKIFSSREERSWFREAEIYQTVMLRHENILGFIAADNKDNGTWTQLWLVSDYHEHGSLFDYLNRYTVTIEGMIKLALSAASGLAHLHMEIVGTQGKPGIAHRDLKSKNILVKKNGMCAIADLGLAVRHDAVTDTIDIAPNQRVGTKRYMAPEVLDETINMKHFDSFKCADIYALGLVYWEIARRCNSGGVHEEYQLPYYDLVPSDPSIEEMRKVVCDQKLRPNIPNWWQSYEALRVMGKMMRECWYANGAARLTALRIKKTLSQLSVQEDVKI
Chain of Cyclin-dependent kinase 16 (Homo sapiens) (Q00536 whole entry): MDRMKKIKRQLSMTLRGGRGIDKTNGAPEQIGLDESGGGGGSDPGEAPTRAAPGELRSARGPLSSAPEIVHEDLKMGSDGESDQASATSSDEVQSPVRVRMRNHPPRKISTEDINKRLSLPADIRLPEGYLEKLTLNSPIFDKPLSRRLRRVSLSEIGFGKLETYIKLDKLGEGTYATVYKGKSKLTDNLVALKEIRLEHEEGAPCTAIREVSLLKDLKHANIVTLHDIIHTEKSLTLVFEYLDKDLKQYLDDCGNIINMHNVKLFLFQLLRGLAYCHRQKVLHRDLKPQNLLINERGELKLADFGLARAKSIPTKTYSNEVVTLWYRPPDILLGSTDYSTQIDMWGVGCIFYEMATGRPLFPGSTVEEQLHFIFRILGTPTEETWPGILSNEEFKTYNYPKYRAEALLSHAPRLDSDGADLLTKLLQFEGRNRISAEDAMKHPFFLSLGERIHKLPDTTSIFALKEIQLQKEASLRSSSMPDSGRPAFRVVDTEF
Chain of MAP kinase-interacting serine/threonine-protein kinase 2 (Homo sapiens) (Q9HBH9 whole entry, looked up): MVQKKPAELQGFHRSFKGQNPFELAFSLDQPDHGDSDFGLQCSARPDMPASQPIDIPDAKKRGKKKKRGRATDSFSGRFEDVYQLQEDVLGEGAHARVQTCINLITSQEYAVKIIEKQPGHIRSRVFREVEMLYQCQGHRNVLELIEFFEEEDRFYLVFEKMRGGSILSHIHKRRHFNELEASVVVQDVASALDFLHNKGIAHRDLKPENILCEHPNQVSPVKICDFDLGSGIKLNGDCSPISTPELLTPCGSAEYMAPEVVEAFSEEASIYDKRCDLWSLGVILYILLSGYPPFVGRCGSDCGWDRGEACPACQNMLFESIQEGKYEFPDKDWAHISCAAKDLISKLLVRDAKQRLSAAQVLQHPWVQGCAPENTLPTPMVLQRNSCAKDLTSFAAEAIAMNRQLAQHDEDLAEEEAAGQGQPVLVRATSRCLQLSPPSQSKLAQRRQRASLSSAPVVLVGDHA

How did the residual activity [1] turn out when `CO[C@@H](C)c1c(Nc2ccc([C@H](N(C)C(=O)C3CCS(=O)(=O)CC3)C(F)(F)F)cc2)cnc2cc(Cl)nn12` [NVS-MALT1] was run?
The residual activity was 100%.

What about the residual activity [2] of the same molecule?
The residual activity was 72%.

And the residual activity [3]?
The residual activity was 100%.

And the residual activity [4]?
The residual activity was 80%.

What about the residual activity [5] of the same molecule?
Its residual activity is 100%.

And the residual activity [6]?
Its residual activity is 90%.

What about the residual activity [7] of the same molecule?
The residual activity was 100%.

And the residual activity [8]?
Its residual activity is 85%.

What about the residual activity [9] of the same molecule?
Its residual activity is 93%.

And the residual activity [10]?
Its residual activity is 100%.

What about the residual activity [11] of the same molecule?
Its residual activity is 88%.

And the residual activity [12]?
Its residual activity is 72%.

And the residual activity [13]?
Its residual activity is 100%.

And the residual activity [14]?
The residual activity was 100%.

What about the residual activity [15] of the same molecule?
The residual activity was 91%.

And the residual activity [16]?
Its residual activity is 100%.

What about the residual activity [17] of the same molecule?
The residual activity was 100%.

And the residual activity [18]?
The residual activity was 100%.

And the residual activity [19]?
Its residual activity is 89%.

What about the residual activity [20] of the same molecule?
The residual activity was 84%.

What about the residual activity [21] of the same molecule?
Its residual activity is 100%.

And the residual activity [22]?
Its residual activity is 100%.

What about the residual activity [23] of the same molecule?
Its residual activity is 88%.

What about the residual activity [24] of the same molecule?
The residual activity was 100%.

What about the residual activity [25] of the same molecule?
The residual activity was 100%.

What about the residual activity [26] of the same molecule?
Its residual activity is 81%.

And the residual activity [27]?
Its residual activity is 100%.

What about the residual activity [28] of the same molecule?
Its residual activity is 83%.

And the residual activity [29]?
The residual activity was 86%.

What about the residual activity [30] of the same molecule?
The residual activity was 94%.

And the residual activity [31]?
The residual activity was 66%.

And the residual activity [32]?
Its residual activity is 100%.

And the residual activity [33]?
Its residual activity is 96%.

And the residual activity [34]?
The residual activity was 94%.

And the residual activity [35]?
Its residual activity is 92%.

And the residual activity [36]?
The residual activity was 85%.

And the residual activity [37]?
The residual activity was 85%.

What about the residual activity [38] of the same molecule?
The residual activity was 100%.

What about the residual activity [39] of the same molecule?
The residual activity was 81%.

What about the residual activity [40] of the same molecule?
Its residual activity is 100%.

And the residual activity [41]?
The residual activity was 88%.

And the inhibition [42]?
The inhibition was 4.1%.

What about the inhibition [43] of the same molecule?
Its inhibition is -9.88%.

What about the inhibition [44] of the same molecule?
Its inhibition is 21.3%.

And the inhibition [45]?
Its inhibition is 49.1%.

What does the source list for `CO[C@@H](C)c1c(Nc2ccc([C@@H](N(C)C(=O)C3CCS(=O)(=O)CC3)C(F)(F)F)cc2)cnc2cc(Cl)nn12` [NVS-MALT1-C]?
residual activity [1]: 100%; residual activity [2]: 100%; residual activity [3]: 100%; residual activity [4]: 100%; residual activity [5]: 100%; residual activity [6]: 88%; residual activity [7]: 100%; residual activity [8]: 100%; residual activity [9]: 84%; residual activity [10]: 100%; residual activity [11]: 89%; residual activity [12]: 75%; residual activity [13]: 98%; residual activity [14]: 96%; residual activity [15]: 91%; residual activity [16]: 100%; residual activity [17]: 94%; residual activity [18]: 100%; residual activity [19]: 84%; residual activity [20]: 92%; residual activity [21]: 100%; residual activity [22]: 100%; residual activity [23]: 100%; residual activity [24]: 85%; residual activity [25]: 81%; residual activity [26]: 89%; residual activity [27]: 100%; residual activity [28]: 88%; residual activity [29]: 83%; residual activity [30]: 90%; residual activity [31]: 72%; residual activity [32]: 99%; residual activity [33]: 44%; residual activity [34]: 92%; residual activity [35]: 98%; residual activity [36]: 93%; residual activity [37]: 91%; residual activity [38]: 84%; residual activity [39]: 79%; residual activity [40]: 100%; residual activity [41]: 92%; inhibition [42]: -4.3%; inhibition [43]: 5.46%; inhibition [44]: 21.1%; inhibition [45]: 57.1%
